Measurements taken from patent US6861233B1, “Method of screening for triacyglycerol hydrolase inhibitors” (Glaxo Group Limited, priority 1999, dated 2005).

How the values were obtained:
normal fed hamsters = assay: Hypolipidemic activity of the TGH inhibitor in hamster; type: in vivo; settings: oral, 25 mg/kg twice a day for 3 days
Procedure: Ten normal fed hamsters were randomly allocated into 2 groups. Animals from one group were orally gavaged with a test TGH inhibitor in DMSOI Labrafil (10/90%), 25 mg/kg, twice a day for 3 days while the animals from the other group were gavaged with the solvent (DMSOI/abrafil) twice a day for 3 days. The animals were sacrificed 4 hours following the last administration and the plasma lipids and lipoproteins were analyzed.
Total cholesterol (TC) and triglyceride (TG) levels in plasma were determined enzymatically with reagents from Bio Merieux. VLDL/LDL lipoprotein fractions were separated from the HDL lipoproteins by gradient centrifugation (d=1.063). Cholesterol in the VLDL/LDL as well as in the HDL fraction was also determined using the Bio Merieux kit. Apolipoprotein B-100 (Apo-B100) in the VLDL/LDL fraction was visualized by using SDS-PAGE under reducing conditions using resolving gels containing a 5% to 12% gradient.

[1] = target: T1, lipoprotein lipase (LPL) from bovine milk (Bos taurus, UniProt P11151); assay: Effect of TGH inhibitors on lipoprotein lipase activity (radiolabelled trioleoylglycerol hydrolysis); type: biochemical; settings: tested at 5 μM, incubated with the enzyme 15-min prior to substrate
T1 construct: lipoprotein lipase (LPL) from bovine milk; from tissue; host or cells: bovine milk
T1 sequence (P11151 29-478): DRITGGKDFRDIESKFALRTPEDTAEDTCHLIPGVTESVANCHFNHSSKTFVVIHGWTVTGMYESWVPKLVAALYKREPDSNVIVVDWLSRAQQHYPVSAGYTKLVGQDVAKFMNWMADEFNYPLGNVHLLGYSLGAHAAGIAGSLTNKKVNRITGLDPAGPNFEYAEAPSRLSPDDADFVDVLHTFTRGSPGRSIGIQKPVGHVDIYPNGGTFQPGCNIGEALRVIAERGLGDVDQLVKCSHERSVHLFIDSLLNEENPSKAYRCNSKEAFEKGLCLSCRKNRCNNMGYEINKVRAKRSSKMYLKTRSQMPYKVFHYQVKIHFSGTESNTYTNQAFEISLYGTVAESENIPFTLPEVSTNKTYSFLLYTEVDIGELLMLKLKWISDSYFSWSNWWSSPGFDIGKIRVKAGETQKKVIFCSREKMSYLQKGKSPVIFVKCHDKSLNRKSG
Procedure: In order to evaluate the specificity of TGH inhibitors toward TGH, test compound was tested on the enzymatic activity of lipoprotein lipase (LPL) from bovine milk. For this purpose radiolabelled trioleoylglycerol (250 μM, specific activity 1 mCi/mmole) was emulsified in mixture of 10% gum arabic by sonication. Long-chain triacylglycerol hydrolysis was assayed in a final volume of 200 μl containing LPL (1.5 μg/ml), Tris (50 mM), pH 8.0; MgCl2 CaCl2 (1 mM), and 150 mM NaCl with 1 mg/ml BSA as a fatty acid acceptor for 30 min at 37° C. The reaction was terminated with the addition of 3.25 ml of methanol/chloroform/heptane (3.85:3.42:2.73 by volume); 0.3 ml of 150 mM NaCl, lipid carriers (100 μg of unlabelled oleic acid), and 50 μl of 1 N NaOH. The mixture was vortexed and centrifuged. One ml of the upper phase (containing the fatty acids that have been hydrolyzed) was mixed with 10 ml of Cytoscint and counted. Test compound is incubated with the enzyme 15 minutes prior to the addition of the substrate.

human liver TGH = target: T2, human liver TGH (Homo sapiens, UniProt P23141); assay: Effect of test agents on human liver TGH (4-methylumbelliferyl butyrate fluorogenic substrate); type: biochemical; settings: purified human liver TGH 1.16 nM, 15-min pre-incubation, 4-MU-butyrate substrate; read-out: concentration which resulted in 50% inhibition of TGH
T2 construct: the enzyme from microsomal membranes of liver tissues was solubilised by the zwitterionic detergent; from tissue; host or cells: human liver (microsomal membranes)
T2 sequence (P23141 21-567 limits assumed): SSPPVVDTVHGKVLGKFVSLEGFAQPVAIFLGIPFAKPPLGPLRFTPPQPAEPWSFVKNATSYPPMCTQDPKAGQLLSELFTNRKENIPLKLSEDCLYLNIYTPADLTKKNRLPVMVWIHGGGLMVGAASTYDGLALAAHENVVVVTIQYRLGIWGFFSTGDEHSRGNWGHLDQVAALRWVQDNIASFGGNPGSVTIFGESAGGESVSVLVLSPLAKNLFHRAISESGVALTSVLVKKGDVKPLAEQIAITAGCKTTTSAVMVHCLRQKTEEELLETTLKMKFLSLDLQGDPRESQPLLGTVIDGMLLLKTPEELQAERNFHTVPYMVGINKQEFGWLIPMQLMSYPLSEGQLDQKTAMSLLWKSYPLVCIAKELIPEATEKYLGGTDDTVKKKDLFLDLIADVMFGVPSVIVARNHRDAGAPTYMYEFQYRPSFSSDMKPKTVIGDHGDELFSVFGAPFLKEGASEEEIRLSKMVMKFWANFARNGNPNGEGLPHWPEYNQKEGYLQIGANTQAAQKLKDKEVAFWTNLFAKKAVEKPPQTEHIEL
Procedure: Human liver TGH was purified according to Lehner and Verger's protocol described for the porcine liver TGH [13). Briefly, the enzyme from microsomal membranes of liver tissues was solubilised by the zwitterionic detergent 3-[(3 cholamidopropyl)dimethylammonio]-1-propanesulfonate (CHAPS) and was purified to apparent homogeneity by sequential chromatography on Q-sepharose and hydroxyapatite.
The enzymatic activity of TGH was evaluated with the fluorogenic substrate 4-methylumbelliferyl butyrate (4-MU-butyrate). Briefly, 10 μl of a solution of 25 mM of 4-MU-butyrate in tetrahydrofuran was injected in 2 ml of a buffer containing Tris (20 mM), pH 8.0, EDTA (1 mM) and taurodeoxycholate (300 μM). TGH activity was assayed at 1.16 nM in a final volume of 100 μl. The compound was dissolved in DMSO to be tested at various concentrations (from 1 nM to 2 μM) and was incubated with the enzyme 15-min prior to the addition of 20 μl of the substrate, which gives the starting point of the enzymatic reaction. […]
The basal level of fluorescence of the substrate was evaluated in a reaction mixture of 70 μl of buffer, 10 μl of DMSO (at the appropriate dilution) and 20 μl of substrate, and was subtracted from each other data. Rates of lipolysis were determined from continuous increase in fluorescence intensity at 460 nm (Excitation: 355 nm).

[2] = 4 hours after last administration

- effect on the enzymatic activity of LPL [1]: did not affect
- IC50 (human liver TGH): 4 nM
SMILES: Cc1cccc(NN=C(C(=O)c2cccs2)C(=O)C(F)(F)F)c1 [4,4,4-trifluoro-2-[2-(3-methylphenyl)hydrazono]-1-(2-thienyl)butane-1,3-dione]
- HDL cholesterol level (normal fed hamsters; [2]): not significantly affected
- reduction in VLDL/LDL cholesterol (from the solvent treated animals) (normal fed hamsters; [2]): 40%
- reduction in the plasma TG concentration (from the solvent treated animals) (normal fed hamsters; [2]): −55%
- ApoB100 decrease compared to control animals (normal fed hamsters; VLDL/LDL fraction, SDS-PAGE): −39%
